Data: US4775681A, “Method of treating fungal infections with trans-6-[2-substitutedpyrrol-1-yl)alkyl]-4-hydroxypyran-2-ones” (Warner-Lambert Company, priority 1987, dated 1988)
≈ marks a conversion by molar mass, not a printed value. Counter-ions that a name gives are not always drawn.

What was measured:
Test in all cases: Antifungal susceptibility, microbroth dilution MIC
Assay type in all cases: cell-based
Candida tropicans = test system: Candida tropicans
Experimental: (§1) The antimicrobial susceptibilities of eleven strains of Candida albicans, two strains of Candida tropicans, and one strain each of Torulopsis glabrata and Cryptococcus neoformans to several representative compounds of the present invention were tested. For comparison, the known antifungal agents amphotericin-B and ketoconazole were also tested. Minimal inhibitory concentrations (MIC's) for each compound were determined using the microbroth dilution technique described by S. Shadomy, et al, "Laboratory Studies with Antifungal Agents: Susceptibility Tests and Bioassays," pp. 991-999 in Manual Clin. Microbiol., 4th Ed., Amer. Soc. For Microbiol., Washington, D.C., 1985. The compounds tested are as follows and the results of the testing appear in the following Table.

Cryptococcus neoformans = conditions: strain 1678, 24 hours
Experimental: as §1

Torulopsis glabrata = conditions: Nakaseomyces glabratus; strain 1581; 24 hours
Experimental: as §1

Candida albicans = test system: Candida albicans
Experimental: as §1

[1] = ATCC13803, strain ATCC 13803, 24 hours
[2] = ATCC10231, 24 h, strain ATCC 10231

| MIC (Candida tropicans; [1]) [µg/mL] | MIC (Candida tropicans; strain 1573, 24 hours) [µg/mL] | MIC (Cryptococcus neoformans) [µg/mL] | MIC (Torulopsis glabrata) [µg/mL] | MIC (Candida albicans; 24 h, strain 1570) [µg/mL] | MIC (Candida albicans; 24 h, strain 1571) [µg/mL] | MIC (Candida albicans; 24 h, strain 1574) [µg/mL] | MIC (Candida albicans; 24 h, strain 1575) [µg/mL] | MIC (Candida albicans; 24 h, strain 1576) [µg/mL] | MIC (Candida albicans; 24 h, strain 1577) [µg/mL] | MIC (Candida albicans; 24 h, strain 1578) [µg/mL] | MIC (Candida albicans; 24 h, strain 1579) [µg/mL] | MIC (Candida albicans; 24 h, strain B4b) [µg/mL] | MIC (Candida albicans; 24 h, strain M752) [µg/mL] | MIC (Candida albicans; [2]) [µg/mL] | SMILES |
| --- | --- | --- | --- | --- | --- | --- | --- | --- | --- | --- | --- | --- | --- | --- | --- |
| 64 | 16 | 128 | 128 | 16 | 32 | 16 | 32 | 15 | 16 | 16 | 16 | 16 | 32 | 16 | CC(C)c1c(Br)c(Br)c(-c2ccc(F)cc2)n1CC[C@@H](O)C[C@@H](O)CC(=O)O (relative stereo) [Compound 1, 3,4-Dibromo-2-(4-fluorophenyl)-β,δ-dihydroxy-5-(1-methylethyl)-1H-pyrrole-1-heptanoic acid, monosodium salt] |
| 0.5 (≈ 0.941 µM) | > 0.5 | > 0.5 | > 0.5 | 0.25 (≈ 0.47 µM) | 0.125 (≈ 0.235 µM) | 0.25 (≈ 0.47 µM) | 0.5 (≈ 0.941 µM) | > 0.5 | 0.125 (≈ 0.235 µM) | 0.25 (≈ 0.47 µM) | 0.5 (≈ 0.941 µM) | 0.25 (≈ 0.47 µM) | 0.25 (≈ 0.47 µM) | > 0.5 | CC(=O)N1CCN(c2ccc(OCC3COC(Cn4ccnc4)(c4ccc(Cl)cc4Cl)O3)cc2)CC1 (stereo not drawn) [Keto, Ketoconazole, reference compound] |
| 8 (≈ 8.66 µM) | 4 (≈ 4.33 µM) | 4 (≈ 4.33 µM) | 8 (≈ 8.66 µM) | 8 (≈ 8.66 µM) | 2 (≈ 2.16 µM) | 4 (≈ 4.33 µM) | 8 (≈ 8.66 µM) | 4 (≈ 4.33 µM) | 8 (≈ 8.66 µM) | 8 (≈ 8.66 µM) | 4 (≈ 4.33 µM) | 4 (≈ 4.33 µM) | 8 (≈ 8.66 µM) | 4 (≈ 4.33 µM) | C[C@@H]1[C@H](O)[C@@H](C)/C=C/C=C/C=C/C=C/C=C/C=C/C=C/[C@H](O[C@@H]2O[C@H](C)[C@@H](O)[C@H](N)[C@@H]2O)C[C@@H]2O[C@](O)(C[C@@H](O)C[C@@H](O)[C@H](O)CC[C@@H](O)C[C@@H](O)CC(=O)O[C@H]1C)C[C@H](O)[C@H]2C(=O)O [AMP-B, Amphotericin-B, reference compound] |
| 64 (≈ 123 µM) | 16 (≈ 30.6 µM) | 64 (≈ 123 µM) | 128 (≈ 245 µM) | 32 (≈ 61.3 µM) | 64 (≈ 123 µM) | 32 (≈ 61.3 µM) | 32 (≈ 61.3 µM) | 32 (≈ 61.3 µM) | 32 (≈ 61.3 µM) | 32 (≈ 61.3 µM) | 32 (≈ 61.3 µM) | 16 (≈ 30.6 µM) | 32 (≈ 61.3 µM) | 16 (≈ 30.6 µM) | CCOC(=O)c1c(Br)c(-c2ccc(F)cc2)n(CC[C@H]2C[C@H](O)CC(=O)O2)c1C(F)(F)F (relative stereo) [Compound 2, trans-4-Bromo-5-(4-fluorophenyl)-1[2-(tetrahydro-4-hydroxy-6-oxo-2H-pyran-2-yl)-ethyl]-2-(trifluoromethyl)-1H-pyrrole-3-carboxylic acid, ethyl ester] |
| 128 | 32 | 128 | 128 | 64 | 64 | 64 | 64 | 64 | 32 | 64 | 64 | 32 | 64 | 32 | CC(C)c1c(Cl)c(Cl)c(-c2ccc(F)cc2)n1CC[C@@H](O)C[C@@H](O)CC(=O)O (relative stereo) [Compound 3, 3,4-Dichloro-2-(4-fluorophenyl)-β,δ-hydroxy-5-(1-methylethyl)-1H-pyrrole-1-heptanoic acid, monosodium salt] |
